Reference: PubChem BioAssay (NCI)
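Interpolation was linear, between the two tested concentrations surrounding the appropriate level; five concentrations were tested over 48 hours in 96-well plates. TGI marks complete inhibition of growth.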

Legend:
Assay in all cases: inhibition of tumour cell growth, NCI panel, 48 h
NCI-H460 lung = tested on: NCI-H460 lung
HL-60(TB) leukemia = tested on: HL-60(TB) leukemia
M14 melanoma = tested on: M14 melanoma
CCRF-CEM leukemia = tested on: CCRF-CEM leukemia
DU-145 prostate = tested on: DU-145 prostate
SNB-19 CNS = tested on: SNB-19 CNS
KM12 colon = tested on: KM12 colon
U251 CNS = tested on: U251 CNS
HT29 colon = tested on: HT29 colon
T-47D breast = tested on: T-47D breast
SR leukemia = tested on: SR leukemia
IGROV1 ovarian = tested on: IGROV1 ovarian
UACC-62 melanoma = tested on: UACC-62 melanoma
NCI-H23 lung = tested on: NCI-H23 lung
UACC-257 melanoma = tested on: UACC-257 melanoma
OVCAR-8 ovarian = tested on: OVCAR-8 ovarian
SK-MEL-5 melanoma = tested on: SK-MEL-5 melanoma
UO-31 renal = tested on: UO-31 renal
MDA-MB-231 breast = tested on: MDA-MB-231 breast
SK-MEL-2 melanoma = tested on: SK-MEL-2 melanoma
SN12C renal = tested on: SN12C renal
MALME-3M melanoma = tested on: MALME-3M melanoma
OVCAR-4 ovarian = tested on: OVCAR-4 ovarian
SNB-75 CNS = tested on: SNB-75 CNS
SF-268 CNS = tested on: SF-268 CNS
RPMI-8226 leukemia = tested on: RPMI-8226 leukemia
A549 NSCLC = tested on: A549 NSCLC
SF-295 CNS = tested on: SF-295 CNS
OVCAR-3 ovarian = tested on: OVCAR-3 ovarian
MCF7 breast = tested on: MCF7 breast
HCT-15 colon = tested on: HCT-15 colon
SW-620 colon = tested on: SW-620 colon
K-562 leukemia = tested on: K-562 leukemia
MOLT-4 leukemia = tested on: MOLT-4 leukemia
ACHN renal = tested on: ACHN renal
BT-549 breast = tested on: BT-549 breast
LOX IMVI melanoma = tested on: LOX IMVI melanoma
HS 578T breast = tested on: HS 578T breast
RXF 393 renal = tested on: RXF 393 renal
HCC-2998 colon = tested on: HCC-2998 colon
MDA-MB-435 = tested on: MDA-MB-435
OVCAR-5 ovarian = tested on: OVCAR-5 ovarian
MDA-N = tested on: MDA-N
TK-10 renal = tested on: TK-10 renal
786-0 renal = tested on: 786-0 renal
NCI-H522 lung = tested on: NCI-H522 lung
COLO 205 colon = tested on: COLO 205 colon
NCI-H226 lung = tested on: NCI-H226 lung
SK-MEL-28 melanoma = tested on: SK-MEL-28 melanoma
HOP-92 NSCLC = tested on: HOP-92 NSCLC
HCT-116 colon = tested on: HCT-116 colon
PC-3 prostate = tested on: PC-3 prostate
HOP-62 NSCLC = tested on: HOP-62 NSCLC
EKVX NSCLC = tested on: EKVX NSCLC
A498 renal = tested on: A498 renal
SF-539 CNS = tested on: SF-539 CNS
NCI/ADR-RES ovarian = tested on: NCI/ADR-RES ovarian
CAKI-1 renal = tested on: CAKI-1 renal
SK-OV-3 ovarian = tested on: SK-OV-3 ovarian

In the case of `CN(C(=O)c1ccc(Cl)cc1)C(=S)N1CCN(c2ccccc2)CC1`, the TGI (NCI-H460 lung) was > 100 µM, the TGI (HL-60(TB) leukemia) was > 100 µM and the TGI (M14 melanoma) was > 100 µM. The TGI (CCRF-CEM leukemia) was > 100 µM, the TGI (DU-145 prostate) was > 100 µM and the TGI (SNB-19 CNS) was > 100 µM. For the same compound, the TGI (KM12 colon) was > 100 µM, the TGI (U251 CNS) was > 100 µM and the TGI (HT29 colon) was > 100 µM. For the same compound, the TGI (T-47D breast) was > 100 µM, the TGI (SR leukemia) was > 100 µM and the TGI (IGROV1 ovarian) was > 100 µM. For the same compound, the TGI (UACC-62 melanoma) was > 100 µM, the TGI (NCI-H23 lung) was > 100 µM and the TGI (UACC-257 melanoma) was > 100 µM. The TGI (OVCAR-8 ovarian) was > 100 µM, the TGI (SK-MEL-5 melanoma) was > 100 µM and the TGI (UO-31 renal) was > 100 µM. The TGI (MDA-MB-231 breast) was > 100 µM, the TGI (SK-MEL-2 melanoma) was > 100 µM and the TGI (SN12C renal) was > 100 µM. The TGI (MALME-3M melanoma) was > 100 µM, the TGI (OVCAR-4 ovarian) was > 100 µM and the TGI (SNB-75 CNS) was > 100 µM. The TGI (SF-268 CNS) was > 100 µM, the TGI (RPMI-8226 leukemia) was > 100 µM and the TGI (A549 NSCLC) was > 100 µM. For the same compound, the TGI (SF-295 CNS) was > 100 µM, the TGI (OVCAR-3 ovarian) was > 100 µM and the TGI (MCF7 breast) was > 100 µM. The TGI (HCT-15 colon) was > 100 µM, the TGI (SW-620 colon) was > 100 µM and the TGI (K-562 leukemia) was > 100 µM. The TGI (MOLT-4 leukemia) was > 100 µM, the TGI (ACHN renal) was > 100 µM and the TGI (BT-549 breast) was > 100 µM. The TGI (LOX IMVI melanoma) was > 100 µM, the TGI (HS 578T breast) was 95.6 µM and the TGI (RXF 393 renal) was > 100 µM. The TGI (HCC-2998 colon) was > 100 µM, the TGI (MDA-MB-435) was > 100 µM and the TGI (OVCAR-5 ovarian) was > 100 µM. The TGI (MDA-N) was > 100 µM, the TGI (TK-10 renal) was > 100 µM and the TGI (786-0 renal) was > 100 µM. For the same compound, the TGI (NCI-H522 lung) was > 100 µM, the TGI (COLO 205 colon) was > 100 µM and the TGI (NCI-H226 lung) was > 100 µM. The TGI (SK-MEL-28 melanoma) was > 100 µM and the TGI (HOP-92 NSCLC) was > 100 µM.
With `COc1ccc(NC(=O)CC(=O)N2N=C(C)C(N=Nc3ccc(C(=O)O)cc3)C2=O)cc1` (stereo not drawn) the TGI (NCI-H460 lung) was > 100 µM, the TGI (HL-60(TB) leukemia) was > 100 µM and the TGI (M14 melanoma) was > 100 µM. The TGI (CCRF-CEM leukemia) was > 100 µM, the TGI (DU-145 prostate) was > 100 µM and the TGI (SNB-19 CNS) was > 100 µM. For the same compound, the TGI (HCT-116 colon) was > 100 µM, the TGI (PC-3 prostate) was > 100 µM and the TGI (KM12 colon) was > 100 µM. For the same compound, the TGI (U251 CNS) was > 100 µM, the TGI (HT29 colon) was > 100 µM and the TGI (T-47D breast) was > 100 µM. For the same compound, the TGI (IGROV1 ovarian) was > 100 µM, the TGI (HOP-62 NSCLC) was > 100 µM and the TGI (UACC-62 melanoma) was > 100 µM. The TGI (NCI-H23 lung) was > 100 µM, the TGI (UACC-257 melanoma) was > 100 µM and the TGI (EKVX NSCLC) was > 100 µM. For the same compound, the TGI (OVCAR-8 ovarian) was > 100 µM, the TGI (SK-MEL-5 melanoma) was > 100 µM and the TGI (UO-31 renal) was > 100 µM. The TGI (MDA-MB-231 breast) was > 100 µM, the TGI (A498 renal) was > 100 µM and the TGI (SK-MEL-2 melanoma) was > 100 µM. For the same compound, the TGI (SF-539 CNS) was > 100 µM, the TGI (SN12C renal) was > 100 µM and the TGI (MALME-3M melanoma) was > 100 µM. The TGI (OVCAR-4 ovarian) was > 100 µM, the TGI (SNB-75 CNS) was > 100 µM and the TGI (SF-268 CNS) was > 100 µM. For the same compound, the TGI (A549 NSCLC) was > 100 µM, the TGI (SF-295 CNS) was > 100 µM and the TGI (OVCAR-3 ovarian) was > 100 µM. The TGI (MCF7 breast) was > 100 µM, the TGI (HCT-15 colon) was > 100 µM and the TGI (SW-620 colon) was > 100 µM. For the same compound, the TGI (K-562 leukemia) was > 100 µM, the TGI (ACHN renal) was > 100 µM and the TGI (LOX IMVI melanoma) was > 100 µM. For the same compound, the TGI (HS 578T breast) was > 100 µM, the TGI (RXF 393 renal) was > 100 µM and the TGI (HCC-2998 colon) was > 100 µM. The TGI (MDA-MB-435) was > 100 µM, the TGI (NCI/ADR-RES ovarian) was > 100 µM and the TGI (OVCAR-5 ovarian) was > 100 µM. For the same compound, the TGI (MDA-N) was > 100 µM, the TGI (TK-10 renal) was > 100 µM and the TGI (CAKI-1 renal) was > 100 µM. The TGI (786-0 renal) was > 100 µM, the TGI (NCI-H522 lung) was > 100 µM and the TGI (COLO 205 colon) was > 100 µM. For the same compound, the TGI (SK-MEL-28 melanoma) was > 100 µM and the TGI (HOP-92 NSCLC) was > 100 µM.
`N[C@@H](Cc1ccc2oc3cc(=O)c4ccccc4c-3nc2c1)C(=O)O` was tested, and the TGI (NCI-H460 lung) was > 100 µM, the TGI (HL-60(TB) leukemia) was > 100 µM and the TGI (M14 melanoma) was 40.9 µM. The TGI (CCRF-CEM leukemia) was > 100 µM, the TGI (DU-145 prostate) was 34.7 µM and the TGI (SNB-19 CNS) was 77.6 µM. The TGI (HCT-116 colon) was > 100 µM, the TGI (KM12 colon) was > 100 µM and the TGI (U251 CNS) was > 100 µM. The TGI (HT29 colon) was 96.8 µM, the TGI (T-47D breast) was > 100 µM and the TGI (SR leukemia) was 60.4 µM. The TGI (IGROV1 ovarian) was > 100 µM, the TGI (HOP-62 NSCLC) was 48.2 µM and the TGI (UACC-62 melanoma) was 57.9 µM. For the same compound, the TGI (NCI-H23 lung) was 51.3 µM, the TGI (UACC-257 melanoma) was 42.3 µM and the TGI (EKVX NSCLC) was > 100 µM. For the same compound, the TGI (OVCAR-8 ovarian) was > 100 µM, the TGI (SK-MEL-5 melanoma) was 24.1 µM and the TGI (UO-31 renal) was > 100 µM. For the same compound, the TGI (MDA-MB-231 breast) was > 100 µM, the TGI (A498 renal) was > 100 µM and the TGI (SF-539 CNS) was > 100 µM. For the same compound, the TGI (SN12C renal) was > 100 µM, the TGI (MALME-3M melanoma) was 11.2 µM and the TGI (OVCAR-4 ovarian) was > 100 µM. For the same compound, the TGI (SNB-75 CNS) was > 100 µM, the TGI (SF-268 CNS) was > 100 µM and the TGI (RPMI-8226 leukemia) was > 100 µM. For the same compound, the TGI (A549 NSCLC) was > 100 µM, the TGI (SF-295 CNS) was 64 µM and the TGI (OVCAR-3 ovarian) was > 100 µM. For the same compound, the TGI (MCF7 breast) was 6.79 µM, the TGI (HCT-15 colon) was > 100 µM and the TGI (SW-620 colon) was > 100 µM. For the same compound, the TGI (K-562 leukemia) was > 100 µM, the TGI (MOLT-4 leukemia) was > 100 µM and the TGI (ACHN renal) was > 100 µM. For the same compound, the TGI (LOX IMVI melanoma) was > 100 µM, the TGI (HS 578T breast) was > 100 µM and the TGI (RXF 393 renal) was > 100 µM. The TGI (MDA-MB-435) was 31.7 µM, the TGI (NCI/ADR-RES ovarian) was > 100 µM and the TGI (OVCAR-5 ovarian) was > 100 µM. The TGI (MDA-N) was 38.2 µM, the TGI (TK-10 renal) was > 100 µM and the TGI (CAKI-1 renal) was > 100 µM. For the same compound, the TGI (786-0 renal) was > 100 µM, the TGI (NCI-H522 lung) was > 100 µM and the TGI (COLO 205 colon) was 38.9 µM. The TGI (NCI-H226 lung) was > 100 µM, the TGI (SK-MEL-28 melanoma) was > 100 µM and the TGI (SK-OV-3 ovarian) was > 100 µM. The TGI (HOP-92 NSCLC) was > 100 µM.
